Paper PMC8741604 (Translational Oncology, 2022)
Where a SMILES comes first, the peptide text is derived from it.

B1: murine PD-1: murine PD-1, literature affinity for human PD-L1 (protein, UniProt Q02242 25-288, looked up)
Programmed cell death protein …: LEVPNGPWRSLTFYPAWLTVSEGANATFTCSLSNWSEDLMLNWNRLSPSNQTEKQAAFCNGLSQPVQDARFQIIQLPNRHDFHMNILDTRRNDSGIYLCGAISLHPKAKIEESPGAELVVTERILETSTRYPSPSPKPEGRFQGMVIGIMSALVGIPVLLLLAWALAVFCSTSMSEARGAGSKDDTLKEEPSAAPVPSVAYEELDFQGREKTPELPTACVHTEYATIVFTEGLGASAMGRRGSADGLQGPRPPRHEDGHCSWPL

Key:
human PD-L1 [1] = target: T1, human PD-L1 (Homo sapiens, UniProt Q9NZQ7); assay: Bio-layer interferometry binding to PD-L1; conditions: for Affinity for PD-L1 in words: bio-layer interferometry
[2] = tested on: CT26 murine colon carcinoma tumor in BALB/c mice; assay: Subcutaneous CT26 syngeneic tumor model, pre-treated with CT26 cell lysate; format: in vivo, mouse; conditions: PD-L1ip3 peptide only
[3] = tested on: CT26 murine colon carcinoma cells; assay: MTT cell viability without T cells; format: cell-based
[4] = tested on: CT26 murine colon carcinoma tumor in BALB/c mice; assay: Subcutaneous CT26 syngeneic tumor model, without pre-immunization; format: in vivo, mouse; conditions: PD-L1ip3 peptide alone, no pre-immunization, vs untreated CT26
human PD-L1 [5] = target: T1, human PD-L1; conditions: cited from earlier work

T1 sequence (Q9NZQ7 19-290): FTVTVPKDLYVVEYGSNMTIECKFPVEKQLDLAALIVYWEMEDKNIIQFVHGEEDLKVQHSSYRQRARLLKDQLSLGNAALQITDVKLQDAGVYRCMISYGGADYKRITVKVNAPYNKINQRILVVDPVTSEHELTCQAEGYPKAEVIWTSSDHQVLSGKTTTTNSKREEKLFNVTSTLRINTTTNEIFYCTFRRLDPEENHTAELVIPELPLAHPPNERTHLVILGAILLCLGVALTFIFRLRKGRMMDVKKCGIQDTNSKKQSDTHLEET

Molecule	Affinity for PD-L1 relative to natural partner PD-1 (human PD-L1 [1]; KD by BLI compared with literature PD-1 KD)	Affinity for PD-L1 in words (human PD-L1 [1])	Tumor growth in words, peptide alone, pre-immunized [2]	Cytotoxicity of the peptide (summary statement) ([3]; peptide alone, CT26 cells)	Tumor growth in words, peptide alone [4]	CT26 cell viability at 72 h, 10 µg/ml ([3]; MTT, 10 µg/ml, 72 h, not significantly different from PBS)	Affinity of murine PD-1 for human PD-L1 versus human PD-1 (human PD-L1 [5])
CC[C@H](C)[C@H](NC(=O)[C@H](CC(C)C)NC(=O)[C@@H]1CCCN1C(=O)[C@H](CCCCN)NC(=O)[C@H](CC(C)C)NC(=O)[C@H](CCCNC(=N)N)NC(=O)[C@@H](NC(=O)CN)[C@@H](C)O)C(=O)N[C@H](C(=O)N[C@@H](CS)C(=O)N[C@H](C(=O)N[C@@H](CCC(N)=O)C(=O)N[C@@H](Cc1c[nH]c2ccccc12)C(=O)N1CCC[C@H]1C(=O)NCC(=O)N[C@@H](CC(C)C)C(=O)O)C(C)C)[C@@H](C)CC [PD-L1ip3] (H-GTRLKPLIICVQWPGL-OH)	only a few times weaker	affinity in the micromolar range	minimal effect on tumor growth	negligible cytotoxicity	neither transduction of a scrambled sequence peptide gene by the adenovirus vector (Ad-PD-L1ip3SC) nor PD-L1ip3 in peptide form alone showed a statistically significant change in tumor growth	–	–
VLIKIPWLRLPGCGTQ [PD-L1ip3SC]	–	very weak binding	–	–	–	slight decrease of cell viability	–
B1	–	–	–	–	–	–	shows similarity to that of human PD-1 for human PD-L1
